# Results taken from patent EP0941220B1, “A PROCESS FOR RECOVERY OF ASCORBIC ACID” (Yissum Research And Development Company Of The Hebrew …, priority 1996, dated 1998).
# Assay: Temperature sensitivity of carboxylic acid extraction by 0.5 mol/kg Alamine 304 + 10% octanol in kerosene
# Format: physicochemical
# Settings: distribution coefficient at 30°C divided by that at 75°C
# Source text: Referring now to said patents and the teachings thereof, one finds that the process taught therein utilizes the effect of temperature on phosphoric and carboxylic acid extraction by amine-based extractants. The term "amine" as used herein means water-immiscible amine, with a total of at least 20 carbon atoms on its chains. Said patents teach that such amine-based extractants (ABE) lose much of their extraction efficiency upon temperature elevation. This loss of efficiency is referred to as "temperature sensitivity of extraction" (TS). The magnitude of this TS can be represented by the ratio of the distribution coefficient at the lower temperature (DT1) to the distribution coefficient at the higher temperature (DT2). High TS provides for the purification and the concentration of carboxylic acids through altering the temperature between extraction and back-extraction. The acid is extracted from a feed solution by an ABE at low temperature, and is then stripped or back-extracted with water at an elevated temperature. […] This process is referred to herein as the "temperature swing process" (TSP).
smiles,measurement,setting,value
"CCC(=O)O [Propionic, Propionic acid]",TS in Equilibrium with Aqueous Solutions of (mol/kg) 0.05,0.05 mol/kg equilibrium aqueous phase,1.7
same,TS in Equilibrium with Aqueous Solutions of (mol/kg) 0.2,0.2 mol/kg equilibrium aqueous phase,1.5
same,TS in Equilibrium with Aqueous Solutions of (mol/kg) 0.3,0.3 mol/kg equilibrium aqueous phase,1.3
same,TS in Equilibrium with Aqueous Solutions of (mol/kg) 0.475,0.475 mol/kg equilibrium aqueous phase,1.1
